The source made the active and inactive calls. No cut-off for these calls is given here.
Assays:
[1] = system: A549; assay: Induction of apoptosis in human A549 cells assessed as early apoptotic cells at 5 uM by annexin V-FITC staining based flow cytometry (reference value: 0%); type: functional
[2] = target: T1, Protein cereblon/Histone deacetylase 8 (Homo sapiens) (UniProt Q9BY41+Q96SW2); assay: Protac activity at CRBN/HDAC8 in human A549 cells at 10 uM measured preincubated for 20 hrs followed by drug washout and measured after 48 hrs by Western blot analysis; type: cell-based
[3] = system: A549; assay: Induction of apoptosis in human A549 cells assessed as necrotic cells at 5 uM incubated with compound followed by irradiation by annexin V-FITC staining based flow cytometry (reference value: 2.02%); type: functional
[4] = system: A549; assay: Antitumor activity against human A549 cells xenografted in NOD/SCID mouse assessed as increase in gamma-H2AX expression at 5 mg/kg, ip administered every 5 days measured at day 30 under irradiation condition by […] analysis; type: functional, organism-based; conditions: time 30.0 day
[5] = system: A549; assay: Antitumor activity against human A549 cells xenografted in NOD/SCID mouse assessed as increase in number of necrotic cells at 5 mg/kg, ip administered every 5 days measured at day 30 under irradiation condition by H and E staining based analysis; type: functional, organism-based; conditions: time 30.0 day
[6] = target: Cereblon/Ikaros (Homo sapiens) (UniProt Q96SW2+Q13422); assay: Protac activity at CRBN/IKZF1 in human A549 cells assessed as reduction in IKZF1 protein level at 10 uM by Western blot analysis; type: cell-based
[7] = system: A549; assay: Induction of cell cycle arrest in human A549 cells assessed as accumulation of cells at G2/M phase at 5 uM measured after 48 hrs by propidium iodide staining based flow cytometry analysis; type: functional
[8] = system: A549; assay: Effect on DKK1 gene in human A549 cells at 10 uM measured after 20 hrs by RNA sequencing analysis; type: functional, cell-based
[9] = system: A549; assay: Induction of apoptosis in human A549 cells assessed as necrotic cells at 5 uM incubated for 72 hrs by annexin V-FITC staining based flow cytometry relative to control; type: functional
[10] = system: A549; assay: Inhibition of DNA damage repair in human A549 cells assessed as decrease in gamma-H2AX level at 5 uM incubated for 24 hrs followed by irradiation for 4 hrs by immunofluorescence staining based analysis; type: functional, cell-based
[11] = target: T1, Protein cereblon/Histone deacetylase 8 (Homo sapiens); assay: In vivo protac activity at CRBN/HDAC8 in human A549 cells xenografted in NOD/SCID mouse assessed as degradation of HDAC8 at 5 mg/kg, ip administered every 5 days measured at day 30 under irradiation condition by Western blot analysis; type: functional, organism-based; conditions: time 30.0 day
[12] = system: HCT-116; assay: Inhibition of colony formation in SiRNA mediated HDAC8 knockdown human HCT-116 cells assessed as decrease in cell proliferation at 2.5 to 10 uM measured after 7 to 10 days with media replenishment along with compound for every 3 days by crystal violet staining based analysis; type: functional; conditions: dose 2.5-10 µM, time 7-10 day
[13] = system: A549; assay: Induction of apoptosis in human A549 cells assessed as necrotic cells at 1.25 uM incubated for 72 hrs by annexin V-FITC staining based flow cytometry relative to control; type: functional
[14] = system: A549; assay: Induction of apoptosis in human A549 cells assessed as viable cells at 2.5 uM incubated for 72 hrs by annexin V-FITC staining based flow cytometry (reference value: 99.9%); type: functional; conditions: read-out: Activity
[15] = system: A549; assay: Induction of apoptosis in human A549 cells assessed as late apoptotic cells at 10 uM incubated for 72 hrs by annexin V-FITC staining based flow cytometry (reference value: 0.048%); type: functional
[16] = system: A549; assay: Effect on NPTX1 gene in human A549 cells at 10 uM measured after 20 hrs by RNA sequencing analysis; type: functional, cell-based
[17] = system: A549; assay: Inhibition of colony formation in SiRNA mediated HDAC8 knockdown human A549 cells assessed as decrease in cell proliferation at 2.5 to 10 uM measured after 7 to 10 days with media replenishment along with compound for every 3 days by crystal violet staining based analysis; type: functional; conditions: dose 2.5-10 µM, time 7-10 day
[18] = system: A549; assay: Effect on FSTL4 gene in human A549 cells at 10 uM measured after 20 hrs by RNA sequencing analysis; type: functional, cell-based
[19] = system: A549; assay: Induction of apoptosis in human A549 cells assessed as downregulation of PCNA level at 1.25 to 20 uM measured after 48 hrs by Western blot analysis; type: functional, cell-based; conditions: dose 1.25-20 µM
[20] = system: A549; assay: Induction of apoptosis in human A549 cells assessed as upregulation of cleaved PARP level measured after 48 hrs by Western blot analysis; type: functional, cell-based; conditions: dose 1.25-20 µM
[21] = target: T1, Protein cereblon/Histone deacetylase 8 (Homo sapiens); assay: Protac activity at CRBN/HDAC8 in human HCT-116 cells assessed as reduction in HDAC8 protein level at 0.1 to 10 uM by Western blot analysis; type: cell-based; conditions: dose 0.1-10 µM
[22] = target: Protein cereblon/Histone deacetylase 9 (Homo sapiens) (UniProt Q9UKV0+Q96SW2); assay: Protac activity at CRBN/HDAC9 in human A549 cells assessed as degradation of HDAC9 at 0.1 to 10 uM by Western blot analysis; type: cell-based; conditions: dose 0.1-10 µM
[23] = system: A549; assay: Induction of apoptosis in human A549 cells assessed as necrotic cells at 10 uM incubated for 72 hrs by annexin V-FITC staining based flow cytometry relative to control; type: functional
[24] = system: A549; assay: Induction of apoptosis in human A549 cells assessed as early apoptotic cells at 5 uM incubated with compound followed by irradiation by annexin V-FITC staining based flow cytometry (reference value: 6.26%); type: functional
[25] = target: T1, Protein cereblon/Histone deacetylase 8 (Homo sapiens); assay: Protac activity at CRBN/HDAC8 in human MDA-MB-231 cells assessed as decrease in SMAD3 protein level at 0.1 to 10 uM by Western blot analysis; type: cell-based; conditions: dose 0.1-10 µM
[26] = system: A549; assay: Effect on ARPIN gene in human A549 cells at 10 uM measured after 20 hrs by RNA sequencing analysis; type: functional, cell-based
[27] = Toxicity in NOD/SCID mouse xenografted with human A549 cells assessed as change in body weight loss at 5 mg/kg, ip administered every 5 days measured at day 30; type: organism-based; conditions: in vivo, 720 h, time 30 day
[28] = system: A549; assay: Induction of apoptosis in human A549 cells assessed as necrotic cells at 20 uM incubated for 72 hrs by annexin V-FITC staining based flow cytometry relative to control; type: functional
[29] = system: A549; assay: Induction of apoptosis in human A549 cells assessed as upregulation of cleaved caspase-3 level measured after 48 hrs by Western blot analysis; type: functional, cell-based; conditions: dose 1.25-20 µM
[30] = target: T1, Protein cereblon/Histone deacetylase 8 (Homo sapiens); assay: Protac activity at CRBN/HDAC8 in human A549 cells assessed as maximum degradation at 10 uM incubated for 20 hrs by ELISA method relative to control; type: cell-based
[31] = system: A549; assay: Induction of apoptosis in human A549 cells assessed as viable cells at 5 uM incubated for 72 hrs by annexin V-FITC staining based flow cytometry (reference value: 99.9%); type: functional; conditions: read-out: Activity
[32] = target: Protein cereblon/Histone deacetylase 1 (Homo sapiens) (UniProt Q13547+Q96SW2); assay: Protac activity at CRBN/HDAC1 in human A549 cells assessed as reduction in HDAC1 protein level at 0.1 to 10 uM by Western blot analysis; type: cell-based; conditions: dose 0.1-10 µM
[33] = system: A549; assay: Antiproliferative activity against human A549 cells assessed as inhibition of cell growth measured after 72 hrs under irradiation by CCK-8 method; type: functional, cell-based; conditions: A549, light or radiation study

T1 sequence (Q96SW2 whole entry, looked up): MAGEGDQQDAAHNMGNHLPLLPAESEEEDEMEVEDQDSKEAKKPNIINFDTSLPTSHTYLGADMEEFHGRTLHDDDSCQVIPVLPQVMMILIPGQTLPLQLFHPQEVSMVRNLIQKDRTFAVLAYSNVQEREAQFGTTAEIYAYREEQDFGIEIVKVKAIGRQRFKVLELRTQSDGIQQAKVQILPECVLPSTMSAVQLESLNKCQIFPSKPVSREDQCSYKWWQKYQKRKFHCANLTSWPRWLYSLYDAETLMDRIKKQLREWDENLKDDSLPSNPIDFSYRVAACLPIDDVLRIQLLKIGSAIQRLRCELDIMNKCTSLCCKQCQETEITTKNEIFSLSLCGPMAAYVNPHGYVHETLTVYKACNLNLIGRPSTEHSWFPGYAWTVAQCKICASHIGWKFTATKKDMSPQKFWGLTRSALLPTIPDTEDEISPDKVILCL
T1 sequence (Q9BY41 whole entry, looked up): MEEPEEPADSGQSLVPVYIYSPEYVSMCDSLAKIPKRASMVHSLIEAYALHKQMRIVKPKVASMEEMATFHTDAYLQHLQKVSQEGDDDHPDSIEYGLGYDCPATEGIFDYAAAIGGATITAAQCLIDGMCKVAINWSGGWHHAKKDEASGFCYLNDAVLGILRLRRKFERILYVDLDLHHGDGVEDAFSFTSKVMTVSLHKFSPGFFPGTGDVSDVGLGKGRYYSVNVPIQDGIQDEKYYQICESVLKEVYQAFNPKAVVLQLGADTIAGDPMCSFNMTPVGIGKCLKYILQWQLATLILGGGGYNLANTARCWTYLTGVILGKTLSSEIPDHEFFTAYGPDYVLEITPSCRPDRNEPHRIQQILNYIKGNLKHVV
Sequence of Protein cereblon/Histone deacetylase 9 (Homo sapiens) (Q96SW2 whole entry, looked up): as the sequence (Q96SW2 whole entry, looked up) above
Sequence of Protein cereblon/Histone deacetylase 9 (Homo sapiens) (Q9UKV0 whole entry, looked up): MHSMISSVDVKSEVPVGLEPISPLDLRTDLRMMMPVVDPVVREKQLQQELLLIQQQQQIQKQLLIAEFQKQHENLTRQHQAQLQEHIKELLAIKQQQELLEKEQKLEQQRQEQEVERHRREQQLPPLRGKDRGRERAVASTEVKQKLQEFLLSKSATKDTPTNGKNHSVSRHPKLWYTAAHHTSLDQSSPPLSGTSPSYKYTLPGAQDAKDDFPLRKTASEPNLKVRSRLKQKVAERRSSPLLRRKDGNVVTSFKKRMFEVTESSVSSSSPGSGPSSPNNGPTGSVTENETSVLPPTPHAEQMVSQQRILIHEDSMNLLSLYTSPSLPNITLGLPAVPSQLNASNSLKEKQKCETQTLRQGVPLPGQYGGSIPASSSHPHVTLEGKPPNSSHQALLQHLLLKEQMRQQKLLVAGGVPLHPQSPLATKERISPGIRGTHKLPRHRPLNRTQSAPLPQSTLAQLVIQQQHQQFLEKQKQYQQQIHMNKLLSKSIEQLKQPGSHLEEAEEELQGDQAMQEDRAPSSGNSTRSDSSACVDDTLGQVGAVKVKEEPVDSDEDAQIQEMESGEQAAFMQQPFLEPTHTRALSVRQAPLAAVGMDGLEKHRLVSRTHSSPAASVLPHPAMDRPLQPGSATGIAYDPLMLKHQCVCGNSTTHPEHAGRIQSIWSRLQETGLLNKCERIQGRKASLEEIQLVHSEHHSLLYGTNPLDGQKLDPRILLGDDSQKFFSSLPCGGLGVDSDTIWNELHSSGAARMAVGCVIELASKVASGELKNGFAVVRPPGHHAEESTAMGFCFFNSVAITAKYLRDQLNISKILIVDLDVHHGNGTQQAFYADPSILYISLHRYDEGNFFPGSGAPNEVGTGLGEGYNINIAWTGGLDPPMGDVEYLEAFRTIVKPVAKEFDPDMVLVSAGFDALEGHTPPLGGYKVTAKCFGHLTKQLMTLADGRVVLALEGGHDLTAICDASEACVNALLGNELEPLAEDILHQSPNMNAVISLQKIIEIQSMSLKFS
Sequence of Protein cereblon/Histone deacetylase 1 (Homo sapiens) (Q13547 whole entry, looked up): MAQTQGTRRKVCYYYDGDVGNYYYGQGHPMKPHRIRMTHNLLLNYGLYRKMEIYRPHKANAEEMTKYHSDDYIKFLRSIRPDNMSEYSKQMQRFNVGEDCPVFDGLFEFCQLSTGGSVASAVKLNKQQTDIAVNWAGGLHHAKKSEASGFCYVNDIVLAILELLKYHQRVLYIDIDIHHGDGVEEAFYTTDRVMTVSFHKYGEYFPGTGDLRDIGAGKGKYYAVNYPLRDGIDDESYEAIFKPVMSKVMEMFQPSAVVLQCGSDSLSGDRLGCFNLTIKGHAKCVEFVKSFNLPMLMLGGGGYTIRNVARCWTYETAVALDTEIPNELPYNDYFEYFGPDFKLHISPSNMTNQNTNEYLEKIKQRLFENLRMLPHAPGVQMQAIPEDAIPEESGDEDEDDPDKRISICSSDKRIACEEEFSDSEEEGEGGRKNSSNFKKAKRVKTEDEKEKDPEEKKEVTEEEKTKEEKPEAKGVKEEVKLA
Sequence of Protein cereblon/Histone deacetylase 1 (Homo sapiens) (Q96SW2 whole entry, looked up): as the sequence (Q96SW2 whole entry, looked up) above

Activity [2]: inactive
Activity [6]: Active
Activity [11]: Active
Activity [21]: Active
Activity [22]: inactive
Activity [25]: Active
Emax [30]: > 95%
Activity [32]: inactive
IC50 [33]: 6.04 µM
SMILES: O=C1CCC(N2C(=O)c3cccc(NCc4cn(CCOCCOc5ccc(Cn6ccc7ccc(C(=O)NO)cc76)cc5)nn4)c3C2=O)C(=O)N1 (stereo not drawn)
Activity [1]: 15.4%
Activity [3]: 0.75%
Activity [4]: Active
Activity [5]: Active
Activity [7]: Active
Activity [8]: Active
Activity [9]: 2.49%
inhibition [10]: Active
inhibition [12]: Active
Activity [13]: 0.1%
viability at 2.5 µM [14]: 61.7%
Activity [15]: 22.2%
Activity [16]: Active
inhibition [17]: Active
Activity [18]: Active
Activity [19]: Active
Activity [20]: Dose-Dependent Effect
Activity [23]: 1.52%
Activity [24]: 26.7%
Activity [26]: Active
Activity [27]: Non-Toxic
Activity [28]: 0%
Activity [29]: Dose-Dependent Effect
viability at 5 µM [31]: 54.9%

Source: ChEMBL document CHEMBL5316263, “Structure-Based Discovery of Selective Histone Deacetylase 8 Degraders with Potent Anticancer Activity” (J Med Chem, 2023)
